The source of these data is the NIST ThermoML archive (doi:10.1021/je9000608).

Each structure is given as a SMILES string. ± gives the expanded uncertainty stated by the source.

Series [1] can be described thus: refractive index (Na D-line) (dimensionless). The following applies: 101.33 kPa, Liquid, Standard Abbe refractometry.
The conditions of series [2]: Liquid; for mass density: 101.33 kPa, Pycnometric method; for vapor or sublimation pressure: Ebulliometric method (Recirculating still).

Regarding `ClC(Cl)=C(Cl)Cl` [tetrachloroethene], the refractive index (in general, the speed of light in vacuum divided by its phase velocity in the sample) in series [1] (293.15 K) amounted to 1.5058 ± 0.0008. Moreover, the mass density (commonly the mass of a sample divided by its volume) in series [2] (293.15 K) is 1623 ± 1.8 kg/m3. In addition, the vapor or sublimation pressure (in general, the pressure of vapour in equilibrium with the condensed phase) in series [2] (392.15 K) is 95.6 ± 1 kPa.

As for `CCCCCCO` [hexan-1-ol], the refractive index in series [1] (298.15 K) amounted to 1.4157 ± 0.0008. Also, the mass density in series [2] (298.15 K) is 815.3 ± 0.8 kg/m3. For the same molecule, the “vapor or sublimation pressure” value in series [2] (428.45 K) is recorded as 95.6 ± 1 kPa.

On to `ClCCCl` [1,2-dichloroethane], for which, in series [1] (293.15 K), the refractive index came out at 1.4196 ± 0.0008. In addition, the mass density in series [2] (293.15 K) amounted to 1252.9 ± 1.3 kg/m3. For the same molecule, the “vapor or sublimation pressure” value in series [2] (355.15 K) came to 95.6 ± 1 kPa.

In the case of `ClC(Cl)C(Cl)Cl` [1,1,2,2-tetrachloroethane], the refractive index in series [1] (293.15 K) came to 1.494 ± 0.0008. Besides, the mass density in series [2] (293.15 K) is recorded as 1593 ± 1.8 kg/m3. For the same molecule, the “vapor or sublimation pressure” value in series [2] (417.25 K) was found to be 95.6 ± 1 kPa.

For the molecule `ClC=C(Cl)Cl` [trichloroethene], the refractive index in series [1] (303.15 K) is on record as 1.475 ± 0.0008. In series [2] (303.15 K), the mass density is 1451.3 ± 1.6 kg/m3. Besides, in series [2] (358.45 K), the “vapor or sublimation pressure” value was determined as 95.6 ± 1 kPa.
